According to publication PMC9503898, “Synthesis and Evaluation of Two Long-Acting SSTR2 Antagonists for Radionuclide Therapy of Neuroendocrine Tumors” (Pharmaceuticals, 2022):
Positions of bridges follow the written chain, without caps; N, C: chain ends. Non-standard residues stand in square brackets, D forms with d. Residues, ends and D or L forms follow the SMILES beside them. *: point of attachment. DOTA = O=C(O)CN1CCN(CC(=O)O)CCN(CC(=O)*)CCN(CC(=O)O)CC1; dPhe(4-NHCONH2) = NC(=O)Nc1ccc(C[C@@H](N)C(=O)O)cc1; Dihydroorotyl(S) = O=C1C[C@@H](C(=O)*)NC(=O)N1; Phe(4-Cl) = N[C@@H](Cc1ccc(Cl)cc1)C(=O)O; Phe(4-NH2) = Nc1ccc(C[C@H](N)C(=O)O)cc1

Tests used:
[1] = tested on: H69 tumor tissues expressing SSTR2; experiment: Uptake and autoradiography of H69 tumor sections; format: binding, human; details: 10^−9 M, 90 min, rt, 10 μm sections, phosphor screen 48 h
Procedure: Subcutaneous fresh frozen H69 tumor tissues were cut at 10 μm thickness and immediately mounted on Starfrost glass slides (Thermo Scientific; Bleiswijk, The Netherlands). Tissue sections were incubated with washing buffer (167 mM Tris-HCl, 5 mM MgCl2) containing 0.25% BSA for 10 min at rt to prevent nonspecific binding. […] Each slide was drained off and washed with PBS. Finally, the slides were exposed to super-resolution phosphor screens for 48 h and imaged with the Cyclone system (PerkinElmer; Waltham, MA, USA). Images were analyzed and quantified using the Optiquant software Version 5 (PerkinElmer; Waltham, MA, USA).

in vivo [2] = details: mouse, iv, 0.5 nmol, total radioactivity
[3] = parameters: method as in PMID 29668724; details: literature value; cited from earlier work
U2OS-SSTR2 cells = experiment: Uptake and internalization assay; format: cell-based, human; details: 10^−9 M, 2 h, 37 °C, gamma counter
Procedure: Human osteosarcoma cells (U2OS) stably expressing the SSTR2 receptor were used in all in vitro cell assays. Cells were cultured in Dulbecco’s modified Eagle’s medium (DMEM) from Gibco (Paisley, UK) supplemented with 2 mM L-glutamine, 10% fetal bovine serum (FBS), 50 units/mL penicillin, and 50 μg/mL streptomycin (Sigma Aldrich; Haarlerbergweg, The Netherlands) and maintained at 37 °C and in a 5% CO2 humidified chamber. Passages were performed weekly using trypsin/EDTA (0.05%/0.02% w/v).
Cells were seeded in 6-well plates 48 h before the experiment (2 × 10^5 cells/well). […] After incubation, medium was removed, and cells were washed twice with PBS. The membrane-bound fraction was collected by incubating cells with an acid buffer (50 mM glycine, 100 mM sodium chloride (NaCl), pH 2.8) for 10 min at rt. Cells were lysed using 0.5 M NaOH for 10 min at rt to acquire the internalized fraction. Both fractions were counted in a γ-counter, and data were expressed as percentage of added dose.

in vivo [4] = details: mouse, iv, 20 MBq/0.5 nmol per animal, total radioactivity

tissue to tissue ratio at 4 h (in vivo [2]): 0.6 ± 0.05
tissue to tissue ratio at 72 h (in vivo [2]): 1.2 ± 0.3
tissue uptake at 4 h (in vivo [2]; Bone Marrow uptake): 1.1 ± 2 %ID/g
tissue uptake at 4 h (in vivo [2]; Intestine uptake): 0.5 ± 0.1 %ID/g
tissue uptake at 4 h (in vivo [2]; Kidneys uptake): 12.6 ± 1.2 %ID/g
tissue uptake at 24 h (in vivo [2]; Kidneys uptake): 8.6 ± 2.3 %ID/g
tissue uptake at 48 h (in vivo [2]; Kidneys uptake): 4.1 ± 0.2 %ID/g
tissue uptake at 72 h (in vivo [2]; Kidneys uptake): 3.4 ± 1.4 %ID/g
tissue uptake at 4 h (in vivo [2]; Liver uptake): 0.5 %ID/g
tissue uptake at 24 h (in vivo [2]; Liver uptake): 0.3 %ID/g
tissue uptake at 4 h (in vivo [2]; Lung uptake): 1.3 ± 0.3 %ID/g
tissue uptake at 24 h (in vivo [2]; Lung uptake): 0.4 %ID/g
tissue uptake at 4 h (in vivo [2]; Pancreas uptake): 3.5 ± 0.4 %ID/g
tissue uptake at 48 h (in vivo [2]; Pancreas uptake): 0.6 ± 0.1 %ID/g
tissue uptake at 72 h (in vivo [2]; Pancreas uptake): 0.3 %ID/g
tissue uptake at 4 h (in vivo [2]; Skin uptake): 0.3 ± 0.1 %ID/g
tissue uptake at 4 h (in vivo [2]; Spleen uptake): 0.3 ± 0.1 %ID/g
tissue uptake at 4 h (in vivo [2]; Stomach uptake): 1.7 ± 0.3 %ID/g
tissue uptake at 24 h (in vivo [2]; Stomach uptake): 1.5 ± 1.2 %ID/g
tissue uptake at 48 h (in vivo [2]; Stomach uptake): 0.6 ± 0.2 %ID/g
tissue uptake at 72 h (in vivo [2]; Stomach uptake): 0.4 ± 0.1 %ID/g
tissue uptake at 4 h (in vivo [2]; Tumor uptake): 8.4 ± 0.5 %ID/g
tissue uptake at 24 h (in vivo [2]; Tumor uptake): 6.1 ± 0.5 %ID/g
tissue uptake at 48 h (in vivo [2]; Tumor uptake): 4.6 ± 0.3 %ID/g
tissue uptake at 72 h (in vivo [2]; Tumor uptake): 3.6 ± 0.4 %ID/g
tissue uptake per volume at 4 h (in vivo [4]): 4 ± 0.6 %ID/mL
tissue uptake per volume at 24 h (in vivo [4]): 3.3 ± 0.7 %ID/mL
tissue uptake per volume at 48 h (in vivo [4]): 2.1 ± 0.5 %ID/mL
tissue uptake per volume at 72 h (in vivo [4]): 1.8 ± 0.4 %ID/mL
Structure (SMILES): C[C@@H](O)[C@@H]1NC(=O)[C@H](CCCCN)NC(=O)[C@@H](Cc2ccc(NC(N)=O)cc2)NC(=O)[C@H](Cc2ccc(NC(=O)[C@@H]3CC(=O)NC(=O)N3)cc2)NC(=O)[C@H](NC(=O)[C@H](Cc2ccc(Cl)cc2)NC(=O)CN2CCN(CC(=O)O)CCN(CC(=O)O)CCN(CC(=O)O)CC2)CSSC[C@@H](C(=O)N[C@H](Cc2ccc(O)cc2)C(N)=O)NC1=O [[^177Lu]Lu-JR11, metal not drawn] ({DOTA}-[Phe(4-Cl)][dC][Phe(4-NH2)](Dihydroorotyl(S))[dPhe(4-NHCONH2)]KTC[dY]-NH2; disulfide 2-7; N-terminus and C-terminus assumed)
Radioactive uptake in H69 tumor tissue sections (autoradiography) [1]: 930 ± 37 DLU/mm^2
Log D7.4 [3]: −2.5 [18]
Total uptake in U2OS-SSTR2 cells (U2OS-SSTR2 cells): 16.2 ± 3.0 % added dose
